# Like-named read-outs stand apart in the source and are kept apart here.
# What was measured:
# TPM3-NTRK1 = target: T1, TPM3-NTRK1 (Homo sapiens, UniProt P04629); assay: KM-12 phospho-NTRK1 Western blot; assay type: cell-based; conditions: KM-12 cells, 4 h compound; read-out: IC50, inhibition of TPM3-NTRK1 phosphorylation
# T1 construct: chromosomal translocation of the kinase domain of NTRK1, NTRK2, or NTRK3 with a variety of N-terminal fusion partners; TPM3 N-terminal portion (fusion partner, P06753); endogenous in cells; host or cells: KM-12 (NCI DCTD Tumor Repository); also grown as subcutaneous xenograft in mice; the other entry of the earlier key: TPM3 (P06753, Tropomyosin alpha-3 chain)
# Description: Briefly, cells were grown in RPMI 1640 media supplemented with 10% characterized fetal bovine serum and 1% Penicillin/Streptomycin/L-glutamine solution (Invitrogen, Carlsbad, Calif.) at 37 degrees Celsius, 5% CO2, and 95% humidity. Cells were allowed to expand until reaching 70-95% confluency at which point they were subcultured or harvested for assay use.
# Two hundred fifty thousand cells in growth medium were added per well in a 24-well tissue-culture treated plate. The plate was incubated overnight at 37 degrees Celsius, 5% CO2, and 95% humidity. The next day, a serial dilution of test compound was added to the cells, and plates were incubated for 4 hours at 37 degrees Celsius, 5% CO2, and 95% humidity. Media was then aspirated, cells were washed with PBS, and then lysed. Cell lysates were separated by SDS-PAGE and transferred to PVDF. Phospho-NTRK1 (Tyr674/675) was detected using an antibody from Cell Signaling Technology (Beverly, Mass.), ECL Plus detection reagent (GE Healthcare, Piscataway, N.J.) and a Molecular Devices Storm 840 phosphorimager in fluorescence mode. Blots were stripped and probed for total NTRK1 using an antibody from Santa Cruz Biotech (Santa Cruz, Calif.). IC50 values were calculated using Prism software (Graphpad, San Diego, Calif.).
# [1] = system: NIH-3T3 ETV6-NTRK3 xenograft; assay: Transfected NIH-3T3 ETV6-NTRK3 xenograft model, single-agent efficacy; assay type: in vivo, Mice; conditions: 15 mg/kg, PO, BID, p<0.05
# Description: Mice were implanted subcutaneously and treatment began on Day 4. Treatments ended on Day 24 after three weeks of treatment.
# [2] = system: Transfected NIH-3T3 ETV6-NTRK3 cells; assay: Transfected NIH-3T3 ETV6-NTRK3 cell proliferation assay (resazurin); assay type: cell-based; conditions: Mus musculus, NIH3T3, 144 h; transfected NIH-3T3 cells, six days, 0.5% FBS; read-out: IC50, inhibition of proliferation, ETV6-NTRK3 transfected NIH-3T3
# Description: Transfected NIH-3T3 ETV6-NTRK3 cells were obtained from the laboratory of James Fagin, MD (Memorial Sloan Kettering Cancer Center). Briefly, cells were grown in DMEM media supplemented with 10% characterized fetal bovine serum, 1% Penicillin/Streptomycin/L-glutamine solution (Life Technologies, Carlsbad, Calif.) and 1 μg/mL puromycin (Invitrogen, Carlsbad, Calif.) at 37 degrees Celsius, 5% CO2, and 95% humidity. Cells were allowed to expand until reaching approximately 75% confluency at which point they were subcultured or harvested for assay use.
# [3] = target: T2, NTRK1 kinase phosphorylation (TPM3-NTRK1) (Homo sapiens, UniProt P04629); assay: KM-12 TPM3-NTRK1 xenograft model, inhibition of NTRK1 phosphorylation in tumors after a single dose; assay type: in vivo, Mice; conditions: KM12, mouse, po; for inhibition at 15 mg/kg: single dose 15 mg/kg PO; for inhibition at 7.5 mg/kg: single oral dose 7.5 mg/kg
# T2 construct: chromosomal translocation of the kinase domain of NTRK1, NTRK2, or NTRK3 with a variety of N-terminal fusion partners; TPM3 N-terminal portion (fusion partner, P06753); endogenous in cells; host or cells: KM-12 (NCI DCTD Tumor Repository); also grown as subcutaneous xenograft in mice; the other entry of the earlier key: TPM3 (P06753, Tropomyosin alpha-3 chain)
# Description: (§1) Mice were implanted subcutaneously and a single treatment was given on Day 8. At time points after the single oral dose, tumors were resected, frozen, pulverized, and then lysed. Lysates were separated by SDS-PAGE and protein was transferred to PVDF. Phospho-NTRK1 (Tyr674/675) was detected using an antibody from Cell Signaling Technology (Beverly, Mass.), ECL Plus detection reagent (GE Healthcare, Piscataway, N.J.) and a Molecular Devices Storm 840 phosphorimager in fluorescence mode. Blots were stripped and probed for total NTRK1 using an antibody from Santa Cruz Biotech (Santa Cruz, Calif.).
# NTRK1 [4] = target: T3, NTRK1 (Homo sapiens, UniProt P04629); assay: SK-N-SH phospho-NTRK1 Western blot; assay type: cell-based; parameters: endogenous in cells; host or cells: SK-N-SH (ATCC HTB-11); conditions: SK-N-SH cells, 4 h compound, NGF 100 ng/mL stimulated; read-out: IC50, inhibition of NTRK1 phosphorylation
# Description: (§2) SK-N-SH cells (catalog #HTB-11) were obtained from the American Type Culture Collection (ATCC; Manassas, Va.). Briefly, SK-N-SH cells were grown in MEM medium supplemented with 10% characterized fetal bovine serum and 1% Penicillin-Streptomycin-L-glutamine solution (Invitrogen, Carlsbad, Calif.) at 37 degrees Celsius, 5% CO2, and 95% humidity. Cells were allowed to expand until reaching 70-95% confluency at which point they were subcultured or harvested for assay use.
# Two hundred fifty thousand cells in growth medium were added per well in a 24-well tissue-culture treated plate. The plate was incubated overnight at 37 degrees Celsius, 5% CO2, and 95% humidity. The next day, growth media was aspirated, cells were washed with serum-free MEM media, and one milliliter serum-free MEM media was added per well. A serial dilution of test compound was added to the cells, and plates were incubated for 4 hours at 37 degrees Celsius, 5% CO2, and 95% humidity. Cells were then stimulated for 10 minutes with 100 ng/mL NGF (R&D Systems, Minneapolis, Minn.). […] Phospho-NTRK1 (Tyr674/675) was detected using an antibody from Cell Signaling Technology (Beverly, Mass.), ECL Plus detection reagent (GE Healthcare, Piscataway, N.J.) and a Molecular Devices Storm 840 phosphorimager in fluorescence mode. […] IC50 values were calculated using Prism software (Graphpad, San Diego, Calif.).
# [5] = target: T4, NTRK1 (SEQ ID No. 1) recombinant kinase (Homo sapiens, UniProt P04629); assay: Recombinant NTRK1 kinase assay (ADP production coupled to pyruvate kinase/lactate dehydrogenase); assay type: biochemical; conditions: recombinant NTRK1 4.7 nM, ATP 1 mM
# T4 construct: purchased Invitrogen
# Description: NTRK1 protein sequence used for screening (SEQ ID No. 1)
# [6] = target: T5, NTRK2 (SEQ ID No. 2) recombinant kinase (Homo sapiens, UniProt Q16620); assay: Recombinant NTRK2 kinase assay (ADP production coupled to pyruvate kinase/lactate dehydrogenase); assay type: biochemical; conditions: recombinant NTRK2 4 nM, ATP 1 mM
# T5 construct: purchased Invitrogen
# Description: NTRK2 protein sequence used for screening (SEQ ID No. 2)
# NTRK2 = target: T6, NTRK2 (Homo sapiens, UniProt Q16620); assay: SK-N-SH (retinoic acid differentiated) phospho-NTRK2 Western blot; assay type: cell-based; conditions: SK-N-SH cells differentiated with all-trans retinoic acid, BDNF 100 ng/mL stimulated; read-out: IC50, inhibition of NTRK2 phosphorylation
# T6 construct: endogenous in cells; host or cells: SK-N-SH (ATCC HTB-11), differentiated with 10 µM all-trans retinoic acid
# Description: as §2, with “subcultured. To induce expression of NTRK2, cells were grown in growth medium containing 10 μM all-trans retinoic acid for ten to fourteen days prior to harvesting cells” for “subcultured or harvested”
# Two hundred fifty thousand cells differentiated with 10 μM all-trans retinoic acid in growth medium were added per well in a 12-well tissue-culture treated plate. The plate was incubated overnight at 37 degrees Celsius, 5% CO2, and 95% humidity. The next day, growth media was aspirated, cells were washed with serum-free MEM media, and one milliliter serum-free MEM media was added per well. […] Phospho-NTRK2 (Tyr706/707) was detected using an antibody from Cell Signaling Technology (Beverly, Mass.), ECL Plus detection reagent (GE Healthcare, Piscataway, N.J.) and a Molecular Devices Storm 840 phosphorimager in fluorescence mode. […] IC50 values were calculated using Prism software (Graphpad, San Diego, Calif.).
# NTRK1 [7] = target: T3, NTRK1; assay: K562 phospho-NTRK1 Western blot; assay type: cell-based; parameters: endogenous in cells; conditions: K562 cells, 4 h compound, NGF 100 ng/mL stimulated; read-out: IC50, inhibition of NTRK1 phosphorylation
# Description: as §2, with “K562” for “SK-N-SH”, “#CCL-243)” for “#HTB-11)”, “suspension in IMDM” for “MEM”, “one to three million cells per milliliter” for “70-95% confluency”
# One million cells in serum-free IMDM media were added per well in a 24-well tissue-culture treated plate. A serial dilution of test compound was added to cells and plates were incubated for 4 hours at 37 degrees Celsius, 5% CO2, and 95% humidity. Cells were then stimulated for 10 minutes with 100 ng/mL NGF (R&D Systems, Minneapolis, Minn.). Cells pelleted by centrifugation, washed with PBS, then lysed. Cell lysates were separated by SDS-PAGE and transferred to PVDF. Phospho-NTRK1 (Tyr674/675) was detected using an antibody from Cell Signaling Technology (Beverly, Mass.), ECL Plus detection reagent (GE Healthcare, Piscataway, N.J.) and a Molecular Devices Storm 840 phosphorimager in fluorescence mode. Blots were stripped and probed for total NTRK1 using an antibody from Santa Cruz Biotech (Santa Cruz, Calif.). IC50 values were calculated using Prism software (Graphpad, San Diego, Calif.).
# [8] = system: NTRK3 kinase phosphorylation (ETV6-NTRK3); assay: Transfected NIH-3T3 ETV6-NTRK3 xenograft model, inhibition of NTRK3 phosphorylation in tumors after a single dose; assay type: in vivo, Mice; conditions: single dose 15 mg/kg PO
# Description: as §1, with “6.” for “8.”, “doses,” for “dose,”, “Phospho-NTRK3 (Tyr516)” for “Phospho-NTRK1 (Tyr674/675)”, “mode.” for “mode. Blots were stripped and probed for total NTRK1 using an antibody from Santa Cruz Biotech (Santa Cruz, Calif.).”
# [9] = system: KM-12 TPM3-NTRK1 xenograft; assay: KM-12 TPM3-NTRK1 xenograft model, single-agent efficacy; assay type: in vivo, Mice; conditions: PO, BID
# Description: Mice were implanted subcutaneously and treatment began on Day 5. Treatments ended on Day 25 after three weeks of treatment.
# [10] = 3.75 mg/kg, not statistically significant
# T2 sequence (P04629 with tags, fused parts or gaps): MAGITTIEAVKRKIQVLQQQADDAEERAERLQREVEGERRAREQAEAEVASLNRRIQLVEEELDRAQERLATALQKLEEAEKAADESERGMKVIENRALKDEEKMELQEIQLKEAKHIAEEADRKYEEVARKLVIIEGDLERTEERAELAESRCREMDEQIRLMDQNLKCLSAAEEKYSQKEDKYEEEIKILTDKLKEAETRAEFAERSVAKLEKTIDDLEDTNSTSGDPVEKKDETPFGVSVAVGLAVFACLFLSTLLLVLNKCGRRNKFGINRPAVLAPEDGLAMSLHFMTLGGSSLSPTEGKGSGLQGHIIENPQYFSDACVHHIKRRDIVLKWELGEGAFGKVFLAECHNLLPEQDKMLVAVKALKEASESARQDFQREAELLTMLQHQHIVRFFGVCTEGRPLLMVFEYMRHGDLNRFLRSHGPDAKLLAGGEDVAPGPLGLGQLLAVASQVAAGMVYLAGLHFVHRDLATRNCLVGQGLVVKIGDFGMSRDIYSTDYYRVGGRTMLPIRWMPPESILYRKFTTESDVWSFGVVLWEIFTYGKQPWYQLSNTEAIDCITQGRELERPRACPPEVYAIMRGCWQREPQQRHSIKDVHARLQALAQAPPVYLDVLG
# T3 sequence (P04629 33-796): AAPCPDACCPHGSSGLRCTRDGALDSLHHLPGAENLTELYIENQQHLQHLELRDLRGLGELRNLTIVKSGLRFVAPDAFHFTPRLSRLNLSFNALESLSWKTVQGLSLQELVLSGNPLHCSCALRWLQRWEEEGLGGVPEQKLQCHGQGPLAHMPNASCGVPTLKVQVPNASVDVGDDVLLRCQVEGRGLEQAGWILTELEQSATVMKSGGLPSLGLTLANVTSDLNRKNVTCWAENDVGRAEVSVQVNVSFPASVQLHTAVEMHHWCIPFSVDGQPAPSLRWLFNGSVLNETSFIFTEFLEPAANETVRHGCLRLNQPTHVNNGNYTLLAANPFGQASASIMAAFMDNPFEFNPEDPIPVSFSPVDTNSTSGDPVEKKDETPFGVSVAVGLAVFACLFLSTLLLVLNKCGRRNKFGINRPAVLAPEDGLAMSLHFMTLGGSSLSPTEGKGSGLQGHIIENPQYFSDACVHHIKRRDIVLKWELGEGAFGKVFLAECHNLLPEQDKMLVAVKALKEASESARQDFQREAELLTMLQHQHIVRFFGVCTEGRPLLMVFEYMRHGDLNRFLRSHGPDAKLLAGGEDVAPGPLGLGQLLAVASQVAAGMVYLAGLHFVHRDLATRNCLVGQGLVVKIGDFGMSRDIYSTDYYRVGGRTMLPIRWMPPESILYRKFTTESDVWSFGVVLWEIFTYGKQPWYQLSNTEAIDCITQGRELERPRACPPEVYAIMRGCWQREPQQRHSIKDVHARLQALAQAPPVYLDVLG
# T6 sequence (Q16620 32-822): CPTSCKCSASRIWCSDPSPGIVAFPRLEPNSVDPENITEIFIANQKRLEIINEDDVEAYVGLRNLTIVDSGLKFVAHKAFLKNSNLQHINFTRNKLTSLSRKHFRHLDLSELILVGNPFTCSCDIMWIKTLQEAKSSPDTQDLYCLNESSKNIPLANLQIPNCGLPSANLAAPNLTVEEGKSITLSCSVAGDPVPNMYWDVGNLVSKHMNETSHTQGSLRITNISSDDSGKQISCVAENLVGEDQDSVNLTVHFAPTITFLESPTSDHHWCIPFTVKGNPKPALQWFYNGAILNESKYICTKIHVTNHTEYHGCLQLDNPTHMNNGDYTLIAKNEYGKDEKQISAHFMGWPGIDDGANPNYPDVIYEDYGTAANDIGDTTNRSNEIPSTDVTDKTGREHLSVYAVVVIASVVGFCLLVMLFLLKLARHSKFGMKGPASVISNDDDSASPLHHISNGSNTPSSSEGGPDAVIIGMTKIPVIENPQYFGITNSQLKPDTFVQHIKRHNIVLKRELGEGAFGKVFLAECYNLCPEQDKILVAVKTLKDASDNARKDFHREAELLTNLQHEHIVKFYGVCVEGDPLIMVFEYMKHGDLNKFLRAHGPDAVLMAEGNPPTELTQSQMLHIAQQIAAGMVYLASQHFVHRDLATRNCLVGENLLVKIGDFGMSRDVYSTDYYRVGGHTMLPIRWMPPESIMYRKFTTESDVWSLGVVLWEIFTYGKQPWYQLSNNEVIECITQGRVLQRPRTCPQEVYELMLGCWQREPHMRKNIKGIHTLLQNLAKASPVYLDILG
# T5 sequence (Q16620 with tags, fused parts or gaps): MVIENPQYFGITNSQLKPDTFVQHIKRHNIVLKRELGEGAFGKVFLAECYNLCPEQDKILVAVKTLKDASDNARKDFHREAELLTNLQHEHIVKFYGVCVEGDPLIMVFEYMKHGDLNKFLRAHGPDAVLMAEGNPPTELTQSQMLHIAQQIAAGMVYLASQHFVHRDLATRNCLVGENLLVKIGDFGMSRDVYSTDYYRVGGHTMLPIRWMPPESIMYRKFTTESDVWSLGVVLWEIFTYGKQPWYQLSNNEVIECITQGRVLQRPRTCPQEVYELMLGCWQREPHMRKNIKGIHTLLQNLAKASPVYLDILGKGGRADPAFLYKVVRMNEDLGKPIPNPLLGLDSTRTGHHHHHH
# T4 sequence (P04629 with tags, fused parts or gaps): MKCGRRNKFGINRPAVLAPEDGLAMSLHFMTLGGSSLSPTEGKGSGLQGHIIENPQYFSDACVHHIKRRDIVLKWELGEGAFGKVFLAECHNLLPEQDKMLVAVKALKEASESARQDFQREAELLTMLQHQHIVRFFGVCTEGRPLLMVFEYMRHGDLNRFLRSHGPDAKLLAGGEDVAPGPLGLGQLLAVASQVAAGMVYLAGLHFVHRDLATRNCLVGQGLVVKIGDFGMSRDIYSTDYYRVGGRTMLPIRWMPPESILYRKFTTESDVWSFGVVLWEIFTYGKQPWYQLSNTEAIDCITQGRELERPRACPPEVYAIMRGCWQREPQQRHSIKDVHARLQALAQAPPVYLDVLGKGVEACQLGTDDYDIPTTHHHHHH
structure (smiles),measurement,setting,value
"O=C(Nc1cc(Oc2cc(F)c(NC(=O)C3(C(=O)Nc4ccc(F)cc4)CC3)cc2F)ccn1)C1CC1 [Compound 1, N-(4-(2-(cyclopropanecarboxamido)pyridin-4-yloxy)-2,5-difluorophenyl)-N′-(4)cyclopropane-1,1-dicarboxamide]",IC50,TPM3-NTRK1,1.4 nM
same,tumor growth delay,[1]; Day 4 to Day 24,26.5 days
same,Day 8 % T/C,[1],6%
same,IC50,[2],0.44 nM
same,inhibition at 15 mg/kg,"[3]; 24 hours post dose, read-out: inhibition of NTRK1 phosphorylation",79%
same,inhibition at 15 mg/kg,"[3]; through 18 hours post dose, read-out: inhibition of NTRK1 kinase phosphorylation in vivo",~95%
same,inhibition at 7.5 mg/kg,[3]; 12 hours post dose,66%
same,inhibition at 7.5 mg/kg,[3]; 18 hours post dose,74%
same,inhibition at 7.5 mg/kg,[3]; 24 hours post dose,59%
same,inhibition at 7.5 mg/kg,[3]; for 8 hours,> 95%
same,IC50,NTRK1 [4],1 nM
same,IC50,[5],0.71 nM
same,IC50,[6],4.6 nM
same,IC50,NTRK2,0.24 nM
same,IC50,NTRK1 [7],0.69 nM
same,inhibition of NTRK3 phosphorylation,[8]; 18 hours post dose,63%
same,inhibition of NTRK3 phosphorylation,[8]; 24 hours post dose,23%
same,inhibition of NTRK3 kinase phosphorylation in vivo,[8]; through 12 hours post dose,> 95%
same,Day 11 % T/C,[9]; [10],39%
same,tumor growth delay,[9]; [10],4.5 days
same,tumor growth delay,"[9]; 7.5 mg/kg, Day 5 to Day 25, p<0.05",11.4 days
same,Day 11 % T/C,"[9]; 7.5 mg/kg, p<0.05",22%
same,tumor growth delay,"[9]; 15 mg/kg, Day 5 to Day 25, p<0.05",17.8 days
same,Day 11 % T/C,"[9]; 15 mg/kg, p<0.05",16%
